{
  "source": "patent US5498710A",
  "about": "“Alkyl ether analogues of benzoporphyrin derivatives” (Health Research, Inc., priority 1994, dated 1996)",
  "key": {"SMT-F tumor [1]": {"system": "SMT-F tumor", "assay": "In vivo antitumor (photodynamic) activity, SMT-F tumors in DBA/2 mice", "design": "species or system DBA/2 Ha-DD mouse", "description": "Tumor Response and Foot Response Experiments: For tumor response experiments (see Table 3), a 1mm^3 piece of SMT-F tumor from a donor DBA/2 Ha-DD mouse was implanted subcutaneously with a trocar into the axilla of a 5-7 week old female DBA/2 Ha-DD mouse. When the tumor had grown to about 4mm diameter, mice were injected intravenously (i.v.) with photosensitizers at various doses. At various time after injection, mice were restrained in Plexiglas® holders and each tumor was illuminated with 135 J/cm^2 light from a dye laser 171 (spectra physics). The light dose rate was 75 mW/cm^2 as measured with a PTR Optics […]. The percentage of short term control (non-palpable tumors) was recorded daily. For our study 6 mice/group were used.\nIn vivo Biological Activity: The in vivo photosensitizing ability of all the sensitizers was compared with that of commercial BPD in DBA/2 mice bearing subcutaneously implanted SMT-F tumors, a method previously described by Dougherty et al. All photosensitizers, including commercial BPD (mixture of 21 and 22) were first dissolved in a minimum quantity of Tween 80 and then diluted with 0.9% saline, to a final concentration of 1% Tween 80.\nIt can be seen from Table 3 that commercial BPD was quite effective at a dose of 5.0 mg/kg, 3 h post i.v. injection (4 out of six mice were tumor free at day 30). […] However, replacement of the vinyl with a 1-hexyloxyethyl group induced a remarkable difference in photosensitizing activity."}, "hind foot": {"system": "hind foot", "assay": "Foot-response experiments (skin phototoxicity)", "format": "in vivo, DBA/2 HaDD mice", "description": "Foot-response experiments were carried out on 5-7 week old female DBA/2 HaDD mice. Sensitizers were injected i.v. at the following doses: Photofrin® in normal saline, BPD (industrial preparation) in 1% Tween 80; n-hexyl ether derivative 40 in 1% Tween 80. After 1 or 5 days the mice were restrained without anesthesia in aluminum holders and one hind foot of each mouse was illuminated with light from a dye laser 171 (Spectra Physics). Illumination conditions (i.e., light dose, dose rate and wavelength) were as follows: Photofrin®, 5 mg/kg; BPD 5.0 mg/k (3.0 h), n-hexyl ether derivative 40 5.0 mg/kg (24 h) and 1.0 mg/kg (3 h). Light dose was measured with a Coherent 210 power meter and wavelength was measured with a PTR Optics monochromator. Sensitizer does for the foot response experiments corresponded to the lowest dose required to give maximum tumor control measured 7 days after treatment (see Table 3). Foot response was graded daily according to the scale in the legend to FIG. 13. Animals were euthanized immediately after peak foot scores were obtained."}, "[2]": {"assay": "Electronic absorption, red absorption maximum", "format": "physicochemical", "conditions": "maximum red absorption peak, Table 3", "description": "M.p.s were measured on a Thomas/Bristoline microscopic hot stage apparatus and were uncorrected. Silica gel 60 (70-230 and 230-400 mesh, Merck) or neutral alumina (Merck; usually Brockmann Grade III, i. e., deactivated with 6% water) were used for column chromatography. Preparative thin layer chromatography was carried out on 20×20 cm glass plates coated with Merck G 254 silica gel (1 mm thick). Analytical thin layer chromatography (TLC) was performed using merck 60 F254 silica gel (precoated sheets, 0.2 mm thick). Reactions were monitored by TLC and spectrophotometry and were carried out under nitrogen and in the dark. ^1 HNMR spectra were obtained in deuteriochloroform solution at 300 MHz using a General Electric QE300 spectrometer; chemical shifts are expressed in ppm relative to chloroform (7.258 ppm). Elemental analyses were performed at the Midwest Microlab, Ltd., Indiana, USA. Unless stated otherwise, electronic absorption spectra were measured in dichloromethane solution using a Hewlett-Packard 8450A spectrophotometer. Mass spectra were obtained at the Mass Spectrometry Facility, University of California, San Francisco and at the Department of Biophysics, Roswell Park Cancer Institute, Buffalo."}, "SMT-F tumor [3]": {"system": "SMT-F tumor", "assay": "In vivo antitumor (photodynamic) activity, SMT-F tumors in DBA/2 mice", "design": "species or system DBA/2 Ha-DD mouse", "remark": "listed apart in the source"}},
  "note": "Entries after “also recorded” stand apart in the source; their conditions may differ.",
  "data": [
    {"molecule": "CCCCCCOC(C)C1=C(C)c2cc3[nH]c(cc4nc(cc5[nH]c(cc1n2)c(C)c5CCC(=O)OC)C(CCC(=O)OC)=C4C)C1(C)C3=CC=C(C(=O)OC)C1C(=O)OC", "note": "(mixture of isomers) [Compound 40, 8-(1-Hexyloxyethyl)benzoporphyrin Derivative]", "values": [
      {"measurement": "Tumor response (nonpalpable tumor), 1-2 d", "setting": "SMT-F tumor [1]; 1.0 mg/kg i.v., light 3 h after injection, day 1-2", "value": "6/6"},
      {"measurement": "Tumor response (nonpalpable tumor), 7 d", "setting": "SMT-F tumor [1]; 1.0 mg/kg i.v., light 3 h after injection, day 7", "value": "3/6"},
      {"measurement": "Tumor response (nonpalpable tumor), 30 d", "setting": "SMT-F tumor [1]; 1.0 mg/kg i.v., light 3 h after injection, day 30", "value": "3/6"},
      {"measurement": "antitumor / photosensitizing activity", "setting": "SMT-F tumor [1]; 1.0 mg/kg, light 3 h post i.v. injection where stated", "value": "active"},
      {"measurement": "in vivo activity versus vinyl or ring B isomer", "setting": "SMT-F tumor [1]; 1.0 mg/kg, trans isomers compared", "value": "more active than the ring \"B\" modified isomer 45"},
      {"measurement": "in vivo photosensitizing efficacy / antitumor activity compared with BPD", "setting": "SMT-F tumor [1]; mice, compared with BPD (mixture of 21 and 22)", "value": "significantly more active than the industrially prepared benzoporphyrin derivative; also recorded: better photosensitizing efficacy than benzoporphyrin derivative monocarboxylic acid; also recorded: better anti-tumor activity than BPD-MA"},
      {"measurement": "skin phototoxicity compared with Photofrin and BPD", "setting": "hind foot; 1.0 mg/kg, 3 h post injection", "value": "reduced skin phototoxicity"},
      {"measurement": "skin phototoxicity compared with Photofrin and BPD", "setting": "hind foot; 5.0 mg/kg, 24 h post injection", "value": "reduced skin phototoxicity"},
      {"measurement": "skin phototoxicity", "setting": "hind foot; dose not given", "value": "reduced residual skin phototoxicity compared with Photofrin; also recorded: reduced skin phototoxicity compared with BPD-MA and Photofrin"},
      {"measurement": "absorption maximum wavelength", "setting": "[2]", "value": 676, "unit": "nm"},
      {"measurement": "Tumor response (nonpalpable tumor), 1-2 d", "setting": "SMT-F tumor [3]; 5.0 mg/kg i.v., light 24 h after injection, day 1-2", "value": "6/6"},
      {"measurement": "Tumor response (nonpalpable tumor), 7 d", "setting": "SMT-F tumor [3]; 5.0 mg/kg i.v., light 24 h after injection, day 7", "value": "6/6"},
      {"measurement": "Tumor response (nonpalpable tumor), 30 d", "setting": "SMT-F tumor [3]; 5.0 mg/kg i.v., light 24 h after injection, day 30", "value": "5/6"},
      {"measurement": "tumorcidal / photosensitizing activity", "setting": "SMT-F tumor [3]; 5.0 mg/kg, light 24 h post i.v. injection", "value": "excellent tumorcidal activity"}
    ]}
  ]
}
